According to patent US10398592B2, “Diagnostic methods and apparatus” (ForSight Vision4, Inc., priority 2011, dated 2019):

What was measured:
[1] = Diffusion coefficients and equivalent size estimated from molecular weight; format: physicochemical; conditions: for Diff Coeff: Table 2, 37 C, estimated from molecular weight; for D/(Ran D): diffusion relative to Ranibizumab
Text: If the reservoir solution is aqueous or has a viscosity similar to water, the value for the diffusion coefficient of the therapeutic agent (TA) in water at the temperature of interest may be used. […] (Molokhia et al, Exp Eye Res 2008): DTA,37C=DBSA,20C(η20C/η37C)(MWBSA/MWTA)^1/3 where MW refers to the molecular weight of either BSA or the test compound and η is the viscosity of water.
The diffusion constant of the stabilizer can be determined, for example, based on an estimate of hydrodynamic radius corresponding to the cube root of the molecular weight as described herein.
The diffusion coefficients of Table 2 can be determined based on weight for molecular weights up to about 2.5 M Daltons, and based on size above about 2.5 M Daltons.

[2] = Diffusion model of release from the therapeutic device reservoir through the porous structure
Text: The release rate of therapeutic agent 110 through a porous body, such as a sintered porous metal structure or a porous glass structure, may be described by diffusion of the therapeutic agent 110 within the porous structure 150 with the channel parameter, and with an effective diffusion coefficient equal to the diffusion coefficient of the therapeutic agent 110 in the liquid that fills the reservoir multiplied by the Porosity and a Channel Parameter of the porous body: Release Rate=(DP/F)A(cR−cV)/L, where: cR=Concentration in reservoir cV=Concentration outside of the reservoir or in the vitreous D=Diffusion coefficient of the therapeutic agent in the reservoir solution P=Porosity of porous structure F=Channel parameter that may correspond to a tortuosity parameter of channels of porous structure A=Area of porous structure L=Thickness (length) of porous structure Cumulative Release=1−cR/cR0=1−exp((−DPA/FLVR)t), where t=time, Vr=reservoir volume
A model can be derived to describe the release rate as a function of time by relating the change of concentration in the reservoir 140 to the release rate described above. This model assumes a solution of therapeutic agent 110 where the concentration in the reservoir 140 is uniform. In addition, the concentration in the receiving fluid or vitreous is considered negligible (cV=0). Solving the differential equation and rearrangement yields the following equations describing the concentration in the reservoir as a function of time, t, and volume of the reservoir, VR, for release of a therapeutic agent 110 from a solution in a reservoir though a porous structure 150. cR=cR0 exp((−DPA/FLVR)t) and Cumulative Release=1−cR/cR0
The molecular weight of the stabilizer can be provided in 1k Dalton increments from about 1k Dalton to about 200k Daltons and provide in a Table having about 200 rows similar to Table 2. The parameters of Table 2 determined such as the half-life in the device, the equivalent volume, the equivalent diameter, and % in the device at the half-life of the therapeutic agent 110. The table may comprise a row for each molecular weight in 1k Dalton increments, and the % of stabilizer in the device compared with the therapeutic agent 110. The table may include columns for two half-lives of the therapeutic agent, three half-lives of the therapeutic agent, four half-lives of the therapeutic agent, and the corresponding percentage of stabilizer remaining in the device.
FIG. 104 and Table 3 show concentrations of therapeutic agent, stabilizer and the ratio of stabilizer to therapeutic agent in accordance with an exemplary embodiment, for example. The concentrations and rations can be determined by a person of ordinary skill in the art based on the teachings described herein. […] Additional concentrations of the therapeutic agent can be used, for example greater amounts of therapeutic agent.

[3] = assumes unit density, per molecule

| Structure (SMILES) | Diff Coeff [1] [cm^2/s] | Equiv volume [1, 3] [nm^3] | D/(Ran D) [1] | Device Half-life relative to Ranibiz. [2] | Diff Coeff ([1]; listed as trehalose) [cm^2/s] | equivalent diameter [1, 3] [nm] | relative amount remaining in therapeutic device 100 [2] | relative half-life in device 100 ([2]; % of ranibizumab) | diffusion coefficient and rate of release through the porous structure relative to Ranibizumab ([2]; faster than Ranibizumab) |
| --- | --- | --- | --- | --- | --- | --- | --- | --- | --- |
| N[C@@H](Cc1c[nH]cn1)C(=O)O [Histidine] | 6.8E−06 | 0.3 | 6.75 | 0.15 | – | – | – | – | – |
| OC[C@H]1O[C@H](O[C@H]2O[C@H](CO)[C@@H](O)[C@H](O)[C@H]2O)[C@H](O)[C@@H](O)[C@@H]1O [Trehalose] | 5.0E−06 | 0.6 | 5.03 | 0.20 | ~5.0E-6 | ~1.1 | about 3.1% | about 20% | approx. 5 times |
